Data reported in ChEMBL document CHEMBL4665653, “VU6005806/AZN-00016130, an advanced M positive allosteric modulator (PAM) profiled as a potential preclinical development candidate” (Bioorg Med Chem Lett, 2019).
Activity calls are given as the source filed them. The calls are words filed in the database; no cut-off is given here.

How the values were obtained:
[1] = target: D(4) dopamine receptor (Homo sapiens) (UniProt P21917); assay: Displacement of [3H]spiperone from full length recombinant human D4.4 receptor expressed in CHO cells assessed as residual binding level for radioligand at 10 uM incubated for 120 mins by radiometric scintillation analysis relative to control; assay type: cell-based
Sequence of D(4) dopamine receptor (Homo sapiens) (P21917 whole entry): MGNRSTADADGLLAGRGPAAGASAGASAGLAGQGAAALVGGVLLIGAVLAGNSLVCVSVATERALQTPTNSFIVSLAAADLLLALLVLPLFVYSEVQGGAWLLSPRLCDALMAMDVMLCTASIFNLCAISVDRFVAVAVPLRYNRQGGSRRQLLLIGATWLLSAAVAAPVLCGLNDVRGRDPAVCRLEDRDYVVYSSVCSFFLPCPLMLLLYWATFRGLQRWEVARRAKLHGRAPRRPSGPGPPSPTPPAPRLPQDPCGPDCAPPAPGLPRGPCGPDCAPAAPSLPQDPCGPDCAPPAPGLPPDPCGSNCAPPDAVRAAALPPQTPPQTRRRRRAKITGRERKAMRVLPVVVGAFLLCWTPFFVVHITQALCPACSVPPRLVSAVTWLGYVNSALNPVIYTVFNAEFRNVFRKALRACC

[2] = target: Neuropeptide Y receptor type 2 (Homo sapiens) (UniProt P49146); assay: Displacement of [125I]peptide YY from human Y2 receptor in KAN-TS cell membrane assessed as residual binding level for radioligand at 10 uM after 120 mins by scintillation counting analysis relative to control
Sequence of Neuropeptide Y receptor type 2 (Homo sapiens) (P49146 whole entry): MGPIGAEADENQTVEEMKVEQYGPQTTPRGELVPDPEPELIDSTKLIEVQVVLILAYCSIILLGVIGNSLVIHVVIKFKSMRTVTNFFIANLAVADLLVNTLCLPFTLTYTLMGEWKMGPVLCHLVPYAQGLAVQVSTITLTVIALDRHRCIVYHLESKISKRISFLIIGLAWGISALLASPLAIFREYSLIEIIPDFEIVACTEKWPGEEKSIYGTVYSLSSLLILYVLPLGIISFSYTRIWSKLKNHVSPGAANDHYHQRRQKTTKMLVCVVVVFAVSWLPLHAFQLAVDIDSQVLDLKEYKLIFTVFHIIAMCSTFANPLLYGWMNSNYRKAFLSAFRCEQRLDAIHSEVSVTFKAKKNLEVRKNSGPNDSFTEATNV

[3] = target: T1, Muscarinic acetylcholine receptor M4 (Homo sapiens) (UniProt P08173); assay: Positive allosteric modulation of human M4 receptor/Gqi5 in presence of EC20 acetylcholine by calcium mobilization assay relative to acetylcholine; assay type: functional; conditions: filed as positive allosteric modulator
T1 sequence (whole entry): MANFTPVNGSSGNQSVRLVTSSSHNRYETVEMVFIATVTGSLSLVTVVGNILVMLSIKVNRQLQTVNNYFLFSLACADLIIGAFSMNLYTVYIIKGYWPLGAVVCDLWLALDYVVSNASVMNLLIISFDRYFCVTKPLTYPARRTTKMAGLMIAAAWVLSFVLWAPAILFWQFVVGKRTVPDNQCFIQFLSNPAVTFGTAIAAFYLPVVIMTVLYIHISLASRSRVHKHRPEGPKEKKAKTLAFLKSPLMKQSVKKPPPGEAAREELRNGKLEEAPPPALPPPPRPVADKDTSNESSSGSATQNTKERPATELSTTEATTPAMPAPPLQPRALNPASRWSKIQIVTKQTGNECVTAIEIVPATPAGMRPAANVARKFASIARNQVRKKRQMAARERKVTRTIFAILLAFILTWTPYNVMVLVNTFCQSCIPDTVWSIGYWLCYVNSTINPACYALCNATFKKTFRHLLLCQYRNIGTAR

Canis lupus familiaris = species: Canis lupus familiaris; assay: Positive allosteric modulation of dog M4 receptor relative to acetylcholine
[4] = target: Prostaglandin E2 receptor EP4 subtype (Homo sapiens) (UniProt P35408); assay: Displacement of [3H]-Prostaglandin E2 from full length recombinant human prostanoid receptor EP4 expressed in Chem-1 cells assessed as residual binding level for radioligand at 10 uM incubated for 120 mins by scintillation counting analysis relative to control; assay type: cell-based
Sequence of Prostaglandin E2 receptor EP4 subtype (Homo sapiens) (P35408 whole entry): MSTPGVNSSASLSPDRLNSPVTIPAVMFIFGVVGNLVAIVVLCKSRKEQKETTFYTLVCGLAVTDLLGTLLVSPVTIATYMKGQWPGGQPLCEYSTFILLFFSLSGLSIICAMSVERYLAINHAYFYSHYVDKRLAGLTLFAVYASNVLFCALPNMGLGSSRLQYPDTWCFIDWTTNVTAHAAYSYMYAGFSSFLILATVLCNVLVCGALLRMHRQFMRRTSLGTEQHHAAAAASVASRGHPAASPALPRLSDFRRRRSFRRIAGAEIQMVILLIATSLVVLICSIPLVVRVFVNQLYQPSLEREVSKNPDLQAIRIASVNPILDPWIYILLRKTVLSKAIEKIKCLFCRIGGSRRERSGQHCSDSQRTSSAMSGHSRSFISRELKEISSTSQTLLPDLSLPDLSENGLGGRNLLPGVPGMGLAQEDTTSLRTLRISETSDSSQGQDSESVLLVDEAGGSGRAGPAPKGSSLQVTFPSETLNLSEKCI

[5] = target: Platelet-activating factor receptor (Homo sapiens) (UniProt P25105); assay: Displacement of [3H]-PAF from human PAF receptor assessed as residual binding level for radioligand at 10 uM incubated for 180 mins by scintillation counting analysis relative to control
Sequence of Platelet-activating factor receptor (Homo sapiens) (P25105 whole entry): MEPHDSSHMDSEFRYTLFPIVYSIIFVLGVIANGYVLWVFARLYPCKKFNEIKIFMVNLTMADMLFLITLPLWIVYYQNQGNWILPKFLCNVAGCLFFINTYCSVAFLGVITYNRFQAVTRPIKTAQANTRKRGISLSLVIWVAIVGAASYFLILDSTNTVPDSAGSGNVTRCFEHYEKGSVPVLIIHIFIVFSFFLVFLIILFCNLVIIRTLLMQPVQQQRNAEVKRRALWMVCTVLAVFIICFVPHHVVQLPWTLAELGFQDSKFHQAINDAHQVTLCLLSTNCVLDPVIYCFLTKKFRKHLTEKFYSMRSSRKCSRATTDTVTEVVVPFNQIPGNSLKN

[6] = target: Beta-2 adrenergic receptor (Homo sapiens) (UniProt P07550); assay: Displacement of [3H]-(-)CGP 12177 from recombinant full length human adrenergic beta 2 receptor expressed in CHO-hNBR1 cells assessed as residual binding level for radioligand at 10 uM incubated for 60 mins by radiometric scintillation analysis relative to control; assay type: cell-based
Sequence of Beta-2 adrenergic receptor (Homo sapiens) (P07550 whole entry, looked up): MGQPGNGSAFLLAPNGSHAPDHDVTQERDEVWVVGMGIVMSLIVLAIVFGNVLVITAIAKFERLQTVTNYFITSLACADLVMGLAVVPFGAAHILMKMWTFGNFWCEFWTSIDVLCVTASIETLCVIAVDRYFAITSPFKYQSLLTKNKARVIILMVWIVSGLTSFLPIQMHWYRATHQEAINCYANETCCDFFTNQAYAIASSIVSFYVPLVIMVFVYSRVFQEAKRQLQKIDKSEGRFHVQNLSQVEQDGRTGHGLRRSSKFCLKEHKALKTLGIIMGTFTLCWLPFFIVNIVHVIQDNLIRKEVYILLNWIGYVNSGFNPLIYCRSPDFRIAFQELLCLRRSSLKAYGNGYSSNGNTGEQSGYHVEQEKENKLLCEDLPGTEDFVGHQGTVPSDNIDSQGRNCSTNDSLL

Cytochrome P450 2D6 = Cytochrome P450 2D6 (Homo sapiens, UniProt P10635); assay: Inhibition of CYP2D6 (unknown origin); assay type: ADME
Sequence of Cytochrome P450 2D6 (P10635 whole entry): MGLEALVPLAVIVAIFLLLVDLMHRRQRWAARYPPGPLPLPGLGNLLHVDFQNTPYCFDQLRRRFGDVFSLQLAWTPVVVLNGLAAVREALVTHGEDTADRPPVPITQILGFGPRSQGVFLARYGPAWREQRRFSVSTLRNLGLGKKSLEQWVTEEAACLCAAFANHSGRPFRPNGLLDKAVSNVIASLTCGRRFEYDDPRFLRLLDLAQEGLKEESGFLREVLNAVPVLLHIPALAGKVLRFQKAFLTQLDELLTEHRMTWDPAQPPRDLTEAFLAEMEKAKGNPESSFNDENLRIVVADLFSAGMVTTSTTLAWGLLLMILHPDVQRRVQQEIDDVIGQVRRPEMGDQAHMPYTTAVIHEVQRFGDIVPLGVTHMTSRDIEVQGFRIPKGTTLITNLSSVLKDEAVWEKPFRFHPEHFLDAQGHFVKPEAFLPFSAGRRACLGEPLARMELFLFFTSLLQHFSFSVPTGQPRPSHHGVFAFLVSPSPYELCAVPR

Rattus norvegicus [7] = species: Rattus norvegicus; assay: Displacement of [3H]GABA from GABA receptor in Wistar rat brain assessed as residual binding level for radioligand at 10 uM after 20 mins by radiometric scintillation analysis relative to control; assay type: tissue-based
Rattus norvegicus [8] = assay: Reversal of amphetamine-induced hyperlocomotion in rat at 0.56 mg/kg, po relative to control; assay type: functional
[9] = target: Endothelin receptor type B (Homo sapiens) (UniProt P24530); assay: Displacement of [125I]endothelin-1 from recombinant full length human recombinant ETB receptor expressed in CHO-K1 cells assessed as residual binding level for radioligand at 10 uM measured after 120 mins by radiometric scintillation analysis relative to control; assay type: cell-based
Sequence of Endothelin receptor type B (Homo sapiens) (P24530 whole entry): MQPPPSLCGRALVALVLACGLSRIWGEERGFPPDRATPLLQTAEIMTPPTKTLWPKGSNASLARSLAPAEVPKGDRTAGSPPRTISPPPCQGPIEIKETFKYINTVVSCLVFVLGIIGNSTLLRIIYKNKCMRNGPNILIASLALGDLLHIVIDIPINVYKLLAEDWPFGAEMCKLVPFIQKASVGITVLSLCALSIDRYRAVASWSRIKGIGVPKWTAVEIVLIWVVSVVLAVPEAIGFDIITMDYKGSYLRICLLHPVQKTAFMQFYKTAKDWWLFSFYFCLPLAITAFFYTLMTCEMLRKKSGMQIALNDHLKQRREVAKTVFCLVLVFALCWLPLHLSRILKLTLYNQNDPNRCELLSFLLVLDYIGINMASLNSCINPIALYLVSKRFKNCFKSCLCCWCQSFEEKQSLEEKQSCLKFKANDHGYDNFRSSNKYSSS

[10] = target: T2, Glutamate NMDA receptor (Rattus norvegicus) (UniProt P35439+Q00959+Q00960+Q00961+Q62645+Q8VHN2+Q9R1M7); assay: Displacement of [3H]-CGP39653 from NMDA glutamate receptor in Wistar rat brain assessed as residual binding level for radioligand at 10 uM incubated for 20 mins by scintillation counting analysis relative to control; assay type: tissue-based
Rattus norvegicus [11] = species: Rattus norvegicus; assay: Displacement of [3H]-Kainic acid from Glutamate ionotropic kainate receptor in Wistar rat brain assessed as residual binding level for radioligand at 10 uM incubated for 120 mins by scintillation counting analysis relative to control; assay type: tissue-based
[12] = Volume of distribution at steady state in dog; assay type: ADME, Canis lupus familiaris; conditions: in vivo, read-out: Vdss
[13] = target: Cannabinoid receptor 1 (Homo sapiens) (UniProt P21554); assay: Displacement of [3H]-SR141716A from human recombinant full length Cannabinoid CB1 receptor expressed in Chem-1 cells assessed as residual binding level for radioligand at 10 uM incubated for 60 mins by radiometric scintillation analysis relative to control; assay type: cell-based
Sequence of Cannabinoid receptor 1 (Homo sapiens) (P21554 whole entry): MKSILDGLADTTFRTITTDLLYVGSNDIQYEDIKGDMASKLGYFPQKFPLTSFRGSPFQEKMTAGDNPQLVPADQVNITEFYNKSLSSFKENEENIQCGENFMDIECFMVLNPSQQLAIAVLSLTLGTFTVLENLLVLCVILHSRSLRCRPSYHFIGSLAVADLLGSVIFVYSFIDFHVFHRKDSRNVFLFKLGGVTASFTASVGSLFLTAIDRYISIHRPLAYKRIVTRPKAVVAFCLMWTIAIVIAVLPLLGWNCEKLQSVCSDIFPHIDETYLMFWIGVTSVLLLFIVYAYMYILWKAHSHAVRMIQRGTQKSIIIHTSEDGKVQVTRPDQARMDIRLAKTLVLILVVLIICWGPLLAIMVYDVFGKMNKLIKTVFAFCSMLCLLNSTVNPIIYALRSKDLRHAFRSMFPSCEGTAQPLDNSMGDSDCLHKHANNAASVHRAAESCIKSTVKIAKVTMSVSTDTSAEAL

[14] = target: P2X receptor (Rattus norvegicus) (UniProt P51579+P49653+P51578+Q64663+P47824+P51577+P49654); assay: Displacement of [3H] alpha, beta-Methylene-ATP from P2X receptor in Wistar rat urinary bladder assessed as residual binding level for radioligand at 10 uM incubated for 120 mins by liquid scintillation counting method relative to control; assay type: tissue-based
Rattus norvegicus [15] = species: Rattus norvegicus; assay: Displacement of [3H]-idazoxan from imidazoline I2 receptor in Wistar rat brain assessed as residual binding level for radioligand at 10 uM incubated for 30 mins by scintillation counting analysis relative to control; assay type: tissue-based
[16] = Plasma clearance in cynomolgus monkey; assay type: ADME, Macaca fascicularis; conditions: read-out: CL(app)
[17] = target: 5-hydroxytryptamine receptor 2B (Homo sapiens) (UniProt P41595); assay: Displacement of [3H]-LSD from recombinant full length human 5HT2B receptor expressed in CHO-K1 cells assessed as residual binding level for radioligand at 10 uM incubated for 60 mins by; assay type: cell-based
Sequence of 5-hydroxytryptamine receptor 2B (Homo sapiens) (P41595 whole entry): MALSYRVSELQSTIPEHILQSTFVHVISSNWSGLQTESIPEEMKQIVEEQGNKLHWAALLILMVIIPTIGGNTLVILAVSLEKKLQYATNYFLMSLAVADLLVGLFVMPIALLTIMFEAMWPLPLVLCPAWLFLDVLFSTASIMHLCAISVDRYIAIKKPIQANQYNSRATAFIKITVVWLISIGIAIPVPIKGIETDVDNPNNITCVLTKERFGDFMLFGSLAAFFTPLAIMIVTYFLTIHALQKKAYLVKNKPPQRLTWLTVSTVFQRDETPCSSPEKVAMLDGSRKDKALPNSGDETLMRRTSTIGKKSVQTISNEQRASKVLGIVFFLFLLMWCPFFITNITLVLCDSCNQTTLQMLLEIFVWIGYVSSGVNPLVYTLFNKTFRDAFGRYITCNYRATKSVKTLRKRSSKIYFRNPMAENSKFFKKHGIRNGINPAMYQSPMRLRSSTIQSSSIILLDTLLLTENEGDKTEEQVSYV

[18] = Unbound brain-to-plasma concentration ratio in Sprague-Dawley rat at 0.1 to 0.2 mg/kg, iv measured after 0.25 hrs; assay type: ADME, organism-based; conditions: dose 0.1-0.2 mg/kg, read-out: K(p,uu,brain)
Mus musculus [19] = species: Mus musculus; assay: Displacement of [3H]-PDBu from phorbol ester receptor in ICR mouse brain assessed as residual binding level for radioligand at 10 uM incubated for 60 mins by scintillation counting analysis relative to control; assay type: tissue-based
[20] = target: T2, Glutamate NMDA receptor (Rattus norvegicus); assay: Displacement of [3H]MDL 105,519 from glutamate NMDA receptor glycine binding site in Wistar rat cerebral cortical membranes assessed as residual binding level for radioligand at 10 uM incubated for 30 mins by radiometric scintillation analysis relative to control; assay type: tissue-based; conditions: Cerebral cortex
Rattus norvegicus [21] = species: Rattus norvegicus; assay: Displacement of [125I]-Triiodothyronine from thyroid hormone receptors in Sprague-Dawley rat liver assessed as residual binding level for radioligand at 10 uM incubated for 1080 mins by radiometric scintillation analysis relative to control; assay type: tissue-based
[22] = Volume of distribution at steady state in rat; assay type: ADME; conditions: in vivo, read-out: Vdss
Cytochrome P450 2C9 = Cytochrome P450 2C9 (Homo sapiens, UniProt P11712); assay: Inhibition of CYP2C9 (unknown origin); assay type: ADME
Sequence of Cytochrome P450 2C9 (P11712 whole entry): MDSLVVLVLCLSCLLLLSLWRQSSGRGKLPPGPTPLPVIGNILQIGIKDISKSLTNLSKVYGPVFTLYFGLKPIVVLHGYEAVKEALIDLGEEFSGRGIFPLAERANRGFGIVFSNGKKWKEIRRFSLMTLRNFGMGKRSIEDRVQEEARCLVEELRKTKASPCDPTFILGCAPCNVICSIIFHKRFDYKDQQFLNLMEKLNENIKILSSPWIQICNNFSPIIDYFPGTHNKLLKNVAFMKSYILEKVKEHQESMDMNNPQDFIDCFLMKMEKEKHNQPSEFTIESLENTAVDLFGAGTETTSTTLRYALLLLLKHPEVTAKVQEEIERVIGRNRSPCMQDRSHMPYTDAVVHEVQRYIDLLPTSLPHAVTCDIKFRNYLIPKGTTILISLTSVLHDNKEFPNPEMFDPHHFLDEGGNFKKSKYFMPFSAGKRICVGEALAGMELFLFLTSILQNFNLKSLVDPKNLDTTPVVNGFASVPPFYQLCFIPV

Mus musculus [23] = assay: Reversal of amphetamine-induced hyperlocomotion in C57BL/6 mouse at 0.1 to 10 mg/kg, po pretreated for 30 mins after habituation in chamber followed by amphetamine challenge and measured after 1 hr; assay type: functional, organism-based; conditions: dose mg/kg 0.1-10, time 30.0 min
[24] = target: Muscarinic acetylcholine receptor M4 (Rattus norvegicus) (UniProt P08485); assay: Positive allosteric modulation of rat M4 receptor relative to acetylcholine; conditions: filed as positive allosteric modulator
Sequence of Muscarinic acetylcholine receptor M4 (Rattus norvegicus) (P08485 whole entry): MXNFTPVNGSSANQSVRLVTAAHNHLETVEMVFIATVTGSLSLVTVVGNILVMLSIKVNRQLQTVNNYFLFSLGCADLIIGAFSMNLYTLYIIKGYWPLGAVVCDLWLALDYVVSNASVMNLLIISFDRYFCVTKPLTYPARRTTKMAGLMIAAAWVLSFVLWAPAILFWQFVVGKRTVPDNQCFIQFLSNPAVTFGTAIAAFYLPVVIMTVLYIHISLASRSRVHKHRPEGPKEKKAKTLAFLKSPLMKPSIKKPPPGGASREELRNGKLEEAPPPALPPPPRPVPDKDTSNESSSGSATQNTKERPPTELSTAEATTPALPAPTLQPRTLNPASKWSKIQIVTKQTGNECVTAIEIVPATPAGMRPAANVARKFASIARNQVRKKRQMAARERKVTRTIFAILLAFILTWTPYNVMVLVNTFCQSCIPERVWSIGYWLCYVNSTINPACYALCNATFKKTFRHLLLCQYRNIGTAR

Structure (SMILES): COc1nnc2sc(C(=O)NC3CN(c4ncc(C(F)(F)F)cn4)C3)c(N)c2c1C
- Activity [1]: > 50%
- Activity [2]: > 50%
- %max [3]: 71%
- %max (Canis lupus familiaris): 37%
- Activity [4]: > 50%
- Activity [5]: > 50%
- Activity [6]: > 50%
- IC50 (Cytochrome P450 2D6): > 30 µM
- Activity (Rattus norvegicus [7]): > 50%
- Activity (Rattus norvegicus [8]): 44%
- Activity [9]: > 50%
- Activity [10]: > 50%
- Activity (Rattus norvegicus [11]): > 50%
- Vd [12]: 0.57 L/kg
- Activity [13]: > 50%
- Activity [14]: > 50%
- Activity (Rattus norvegicus [15]): > 50%
- clearance [16]: 16 mL/min/kg
- Activity [17]: > 50%
- Kp uu at 0.25 h [18]: 0.73
- Activity (Mus musculus [19]): > 50%
- Activity [20]: > 50%
- Activity (Rattus norvegicus [21]): > 50%
- Vd [22]: 1.81 L/kg
- IC50 (Cytochrome P450 2C9): > 30 µM
- Activity (Mus musculus [23]): Active
- %max [24]: 93%
